In PubChem BioAssay (NCI):
Values joined by “and” are separate entries in the source; they are usually repeats but may differ in a detail not shown here. Identical values can stand only once.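 96-well plates; 48 h exposure; 5 concentrations. Endpoints by linear interpolation between flanking doses. Not reached: highest tested concentration assigned. Abbreviation: GI50, concentration required for 50% inhibition of growth. Definition used: TGI = concentration required for complete inhibition of growth.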

Experiments:
Assay in all cases: NCI tumour cell line growth inhibition, 48 h
[1] = system: OVCAR-5 ovarian
[2] = system: OVCAR-8 ovarian
[3] = system: SF-539 CNS
[4] = system: SK-OV-3 ovarian
[5] = system: SN12C renal
[6] = system: SNB-75 CNS
[7] = system: U251 CNS
[8] = system: CCRF-CEM leukemia
[9] = system: BT-549 breast
[10] = system: HS 578T breast

| SMILES | GI50 [1] | TGI [1] | GI50 [2] | TGI [2] | GI50 [3] | TGI [3] | GI50 [4] | TGI [4] | GI50 [5] | TGI [5] | GI50 [6] | TGI [6] | GI50 [7] | TGI [8] | TGI [7] | GI50 [9] | TGI [9] | GI50 [8] | GI50 [10] | TGI [10] |
| --- | --- | --- | --- | --- | --- | --- | --- | --- | --- | --- | --- | --- | --- | --- | --- | --- | --- | --- | --- | --- |
| COC(=O)C12OCC34C(CC5C(C)C6=CC(=O)OC6=CC5(C)C3C(O)C1O)OC(=O)C(O)C24 (stereo not drawn) | 0.599 µM | 20.3 µM | 0.328 µM | 14.7 µM | 0.0328 µM | 0.116 µM and 0.397 µM | 0.328 µM | 24.6 µM | 0.416 µM | 34.1 µM | 0.158 µM | 0.682 µM and 2.48 µM | 0.0446 µM | – | – | – | – | – | – | – |
| CC(C)(C)c1ccc(OCCOCCOc2ccc(C(C)(C)C)cc2S(=O)(=O)Nc2ccc([N+](=O)[O-])cc2)c(S(=O)(=O)Nc2ccc([N+](=O)[O-])cc2)c1 | – | > 100 µM | – | > 100 µM | – | > 100 µM | – | > 100 µM | – | > 100 µM | – | > 100 µM | – | > 100 µM | > 100 µM | – | – | – | – | – |
| O=C(CCn1[nH]c(=O)c(Cl)c(Cl)c1=O)NNC(=O)C[n+]1ccccc1 | – | > 100 µM | – | > 100 µM | – | > 100 µM | – | > 100 µM | – | > 100 µM | – | > 100 µM | – | > 100 µM | – | – | – | – | – | – |
| Nc1n[n+](-c2ccccc2)no1 | – | > 100 µM | – | > 100 µM | – | > 100 µM | – | > 100 µM | – | > 100 µM | – | – | – | > 100 µM | > 100 µM | – | – | – | – | – |
| COc1ccc2oc(C(=O)O)c3c2c1CCC3CCC(=O)O (stereo not drawn) | – | > 100 µM | – | > 100 µM | – | > 100 µM | – | > 100 µM | – | > 100 µM | – | > 100 µM | – | > 100 µM | > 100 µM | – | – | – | – | – |
| CCOC(=O)C#Cc1c(C(=O)OCC)nnn1Cc1ccc([N+](=O)[O-])cc1 | 8.34 µM | 22.7 µM | 3.72 µM | 11.1 µM | – | – | 21.9 µM | 51.1 µM | 3.33 µM | 12.1 µM | 6.29 µM | 20.5 µM | 8.89 µM | 5 µM | 20.9 µM | 5.07 µM | 17 µM | 1.26 µM | 19.4 µM | 61.4 µM |
| C/C=C(\CCOS(=O)(=O)c1ccc(C)cc1)[Si](C)(C)C | – | > 100 µM | – | > 100 µM | – | > 100 µM | – | > 100 µM | – | > 100 µM | – | > 100 µM | – | 27.3 µM | > 100 µM | – | – | – | – | – |
| Cc1cccc2c1CCC21OC(=O)c2c1ccc1ccccc21 (stereo not drawn) | – | > 100 µM | – | > 100 µM | – | – | – | > 100 µM | – | > 100 µM | – | > 100 µM | – | > 100 µM | > 100 µM | – | – | – | – | – |
| CCOC(=O)c1cnc2c(ccc3ncccc32)c1NCCCN(CC)CC | – | > 100 µM | – | – | – | – | – | > 100 µM | – | – | – | – | – | > 100 µM | > 100 µM | – | – | – | – | – |
| CC(=O)[CH-]C(=O)c1ccccc1.CC(=O)[CH-]C(=O)c1ccccc1.Cc1cc([O-])ccc1Cl.Cc1cc([O-])ccc1Cl.[Ti+4] | 32.7 µM | > 100 µM | 16.8 µM | 59.1 µM | 25.9 µM | 72.9 µM | 31.3 µM | > 100 µM | 32.3 µM | > 100 µM | 20.7 µM | 69.1 µM | 22.1 µM | 42.3 µM | > 100 µM | – | – | 8.45 µM | – | – |
| CC1=C(O)/C(=C/C(C)CCC/C(C)=C/C=C/C(C)CCCc2ccoc2)OC1=O (stereo not drawn) | – | 69.3 µM | – | > 100 µM | – | > 100 µM | – | – | – | > 100 µM | – | > 100 µM | – | – | > 100 µM | – | – | – | – | – |
| COc1ccc2c3c(c(C(=O)c4ccccc4)oc13)CCC2 | – | – | – | > 100 µM | – | > 100 µM | – | > 100 µM | – | > 100 µM | – | > 100 µM | – | > 100 µM | > 100 µM | – | – | – | – | – |
| CC1(C)NCCC[C@]2(C)[C@H]3CC[C@@H]4[C@H]5[C@H](C(=O)/C=C/c6ccccn6)CC[C@]5(CO)CC[C@@]4(C)[C@]3(C)CC[C@@H]12 | 3.69 µM | 16.9 µM | 2.02 µM | 4.54 µM | 1.78 µM | 3.6 µM | 12.9 µM | 30 µM | 3.51 µM | 16.8 µM | – | – | 1.68 µM | 11.4 µM | 3.24 µM | 2.27 µM | 11 µM | 2.71 µM | 4.39 µM | 23.6 µM |
| N#Cc1cc(S(=O)(=O)Nc2nnc(-c3ccccc3)c(-c3ccccc3)n2)c(SCc2ccccc2)cc1Cl | – | – | 28.5 µM | 56.7 µM | 30.2 µM | 62.4 µM | 23.4 µM | 57.4 µM | 20.3 µM | 47 µM | – | – | 17.8 µM | > 100 µM | 33.1 µM | 30.9 µM | 89.6 µM | 7.06 µM | 22.4 µM | 63.3 µM |
